Consider 10 compounds from PubChem BioAssay (NCI).

Common to all, as to assay: NCI tumour cell line growth inhibition, 48 h
Test [1] has as its system SK-MEL-5 melanoma.
Test [2] has as its system UO-31 renal.
The subject of test [3] is U251 CNS.
Test [4] deals with COLO 205 colon.
Test [5] has as its system IGROV1 ovarian.
The subject of test [6] is UACC-257 melanoma.
Test [7] relates to SK-MEL-2 melanoma.
For test [8], the system named is SK-OV-3 ovarian.
In test [9] the test system is LOX IMVI melanoma.
Test [10] relates to MALME-3M melanoma.

Where “and” joins values, the source holds several entries; their conditions need not be identical. Equal values may be shown once.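 Dose response: 5 concentrations. Exposure: 48 h. Format: 96-well plates. Endpoint: linear interpolation; highest concentration if not reached. The concentration for 50% growth inhibition is given as GI50. TGI denotes the concentration required for complete inhibition of growth.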

For the compound `C=C(CN1CCN(c2ccccn2)CC1)c1ccc(C(=O)Nc2ccccc2N)cc1`, the GI50 in test [1] was 0.726 µM; in test [2] it was 1.8 µM; in test [3], 1.48 µM; in [4], 1.71 µM; in [5], 1.57 µM; in test [6] it was 2.32 µM. In addition, the GI50 in test [7] was 1.87 µM; in test [8] it was 1.3 µM. Moreover, the TGI in test [1] was 1.75 µM; in test [2], 7.57 µM; in test [3], > 50 µM; in test [4], 5.74 µM; in test [5], 37.8 µM; in [6], > 50 µM. The values for the TGI in test [7] and in [8] were > 50 µM and 4.44 µM, respectively.

Turning to `COC(=O)N[C@@H](C)CNc1nccc(-c2cn(C(C)C)nc2-c2cc(Cl)cc(NS(C)(=O)=O)c2F)n1`, the GI50 in [1] was > 100 µM; in test [2], 4.57 µM; in [3] it was 59.5 µM; in [4], < 0.01 µM; in [5] it was 0.678 µM; in test [9] it was 0.268 µM. Also, the GI50 in test [8] was 0.363 µM. For the same compound, the TGI in test [1], in test [2], in test [3], in test [4], in test [5] and in test [9] was > 100 µM in each case. In [8], the TGI was > 100 µM.

Turning to `CN1C2C=CC(=O)C1C(C#N)C2` (stereo not given), the TGI in test [10] was 51 µM and > 100 µM; in [1], > 100 µM; in test [2], 39 µM and > 100 µM; in [3], > 100 µM; in [5], > 100 µM; in test [7], 32.1 µM and > 100 µM. In addition, in test [8], the TGI is > 100 µM. In addition, the GI50 is 19.1 µM and 39.8 µM in test [2]; 23.6 µM in test [3]; 12.5 µM and 88.3 µM in test [7].

Regarding `Cc1cc(O)c2c(c1)OC1(C)CCC3C(C)(C)CCCC34COC2C14` (stereo not given), the TGI in test [10] stood at 26.3 µM; in test [1] it was 27.5 µM; in test [2], 33.2 µM; in test [4], 29.9 µM; in test [5], 38.7 µM; in test [6], 28.8 µM. The compound further returned a TGI in test [9] of 27.3 µM.

Take `CCOc1ccc2cc(-c3nn(CC4CCN(C)CC4)c4ncnc(N)c34)ccc2c1`: the GI50 in [1] is 15.8 µM; in test [2], 4.2 µM; in test [3], 12.9 µM; in [4] it was 11.9 µM; in test [5], 11.2 µM; in test [6], 14.7 µM. The values for the GI50 in test [9], in [7] and in test [8] were 19.4 µM, 17 µM and 11.2 µM, respectively. Besides, the TGI is 29.3 µM in [1]; 19.5 µM in test [2]; 27.5 µM in [3]; 26.7 µM in test [4]; 31.4 µM in test [5]; 30.2 µM in test [6]. The TGI in test [9] is 59 µM; in test [7] it was 32.4 µM; in [8] it was 36.1 µM.

In the case of `CCCC(=O)Nc1cc(/C=C/C(=O)N2C[C@@H]3C[C@]34C2=CC(=O)c2[nH]cc(C)c24)n(C)c1`, the TGI in test [10] was 0.337 µM; in test [1], 0.334 µM; in [2] it was 4.34 µM; in [3] it was 3.72 µM and 13.8 µM; in test [5] it was 25 µM; in test [7] it was 0.817 µM and 0.287 µM. The TGI in test [8] is 7.97 µM. Besides, the results for the GI50 in test [3], in test [9] and in test [7] were 0.0359 µM, 0.0112 µM and 0.151 µM, respectively.

In the case of `OC(Cc1cccc2ccccc12)CN1CCC(c2ccccc2)CC1` (stereo not given), the TGI was 24.4 µM in [1]; 0.176 µM in test [2]; 26.2 µM in [3]; 25.6 µM in [4]; 18.8 µM in test [6]; 29.5 µM in [9]. Further, the TGI in test [8] stood at 31.3 µM.

Take `NC(=S)c1cccc(C2Nc3ccccc3O2)c1` (stereo not given): the TGI in test [10], in test [1], in [2], in test [3], in test [4] and in [5] was > 100 µM each time. Moreover, the TGI in test [6], in test [7] and in test [8] was > 100 µM throughout.

As for `COc1ccc(CN2c3ccccc3Sc3ccccc32)cc1O`, the GI50 was 12.1 µM in test [10]; 0.438 µM in test [1]; 0.751 µM in test [2]; 0.427 µM in test [3]; 0.789 µM in test [4]; 1.93 µM in test [5]. Also, the GI50 in test [9] was 0.71 µM; in test [7], 0.333 µM; in [8] it was 0.521 µM. For the same compound, the TGI in test [10] worked out at 28.1 µM; in test [1], 11.3 µM; in test [2], 18.9 µM; in test [3] it was 14.5 µM; in [4], 4.6 µM; in test [5], 21.3 µM. For the same compound, the TGI in test [9] turned out to be 18.8 µM; in test [7], 19.9 µM; in test [8] it was 16.4 µM.

`COc1ccc(-c2cn3ccnc3c(-c3ccc(Cl)cc3)n2)cc1`: the GI50 in test [1] is 4.06 µM; in [2], 33.1 µM; in test [4], 5.49 µM; in [5], 7.46 µM; in test [6], 6.81 µM; in test [9], 7.95 µM. Further, the GI50 is 35.2 µM in test [7] and 20.7 µM in test [8]. Further, the TGI is 21.1 µM in test [1]; > 100 µM in [2]; > 100 µM in test [4]; > 100 µM in test [5]; 48 µM in test [6]; > 100 µM in test [9]. Besides, the TGI in test [7] and in [8] was > 100 µM in each case.
